Laboratory results as given in patent publication US6605620B1, “Cyclic amine compounds and pharmaceutical composition containing the same” (Kowa Co., Ltd., priority 2001, dated 2003).
Structures can show the parent of a compound that is named as a salt.

System: U937 cells adhered to HUVEC stimulated by TNFα
Test: Inhibitory effect on cell adhesion (U937 adhesion to TNFα-stimulated HUVEC)
Format: cell-based, human
Conditions: Homo sapiens; U937 adhesion to TNFα-stimulated HUVEC; fluorescence (PKH2) readout
Description: The test was conducted by reference to the method by Ross et al. (J. Biol. Chem., 267 8537-8543 (1992)). More specifically, after human umbilical venous endothelial cells (HUVEC) were cultured on a 48-well plate to confluent growth, TNFα was added thereto. Upon elapsed time of 5 hours after the addition, U937, which was a human monocytic/histocytic cell fluorescence-labeled with PKH2 (product of Sigma-Aldrich Co., Ltd.), was added in a proportion of 1×10^6 cells per well. After the plate was left at rest at room temperature for 1 hour, unadhered U937 was washed out and lysed in 1% Triton X-100 to measure a remaining fluorescence intensity (excitation wavelength: 480 nm; measuring wavelength: 530 nm). HUVEC and U937 were cultured in EGM-2 (product of Sanko Junyaku K. K.) and 10% FCS-containing RPMI1640, respectively. Each test agent was added to HUVEC upon the addition of TNFα and to U937 24 hours prior to the cell adhesion test. The inhibitory activity was calculated out as IC50 value after inhibitory ratio at each concentration of test compounds was determined. The inhibitory ratio was calculated according to the equation […], wherein A is the number of U937 cells adhered to HUVEC stimulated by TNFα when no test agent was added, B is the number of U937 cells adhered to HUVEC not stimulated by TNFα when no test agent was added, and C is the number of U937 cells adhered to HUVEC stimulated by TNFα when the test agent was added. As control compounds, Test Compound 1 described in Japanese Patent Application Laid-Open No. 9-143075 and dilazep described in Japanese Patent Application Laid-Open No. 11-92382 were simultaneously evaluated.

Structure (SMILES)	IC50 [nM]
COc1cc(-c2cncc(CN(C)C3CCN(Cc4ccnc(-c5cc(OC)c(OC)c(OC)c5)c4)CC3)c2)cc(OC)c1OC [Example 7, 4-[N-Methyl-N-[[5-(3,4,5-trimethoxyphenyl)pyridin-3-yl]methyl]amino]-1-[[2-(3,4,5-trimethoxyphenyl)pyridin-4-yl]methyl]piperidine Difumarate]	300
COc1cc(-c2cc(CN3CC[C@H](N(C)Cc4ccnc(-c5cc(OC)c(OC)c(OC)c5)c4)C3)ccn2)cc(OC)c1OC [Example 3, (3S)-3-[N-Methyl-N-[[2-(3,4,5-trimethoxyphenyl)pyridin-4-yl]methyl]amino]-1-[[2-(3,4,5-trimethoxyphenyl)pyridin-yl]methyl]pirrolidine Tertrahydrochloride]	300
COc1cc(-c2cc(CNC3CCN(Cc4ccnc(-c5cc(OC)c(OC)c(OC)c5)c4)CC3)ccn2)cc(OC)c1OC [Example 5, 1-[[2-(3,4,5-Trimethoxyphenyl)pyridin-4-yl]methyl]-4-[[2-(3,4,5-trimethoxyphenyl)pyridin-4-yl]methylamino]piperidine Difumalate]	200
COc1ccc(N(Cc2ccnc(-c3cc(OC)c(OC)c(OC)c3)c2)C2CCN(Cc3ccnc(-c4cc(OC)c(OC)c(OC)c4)c3)CC2)cc1 [Example 10, 4-[N-(4-Methoxyphenyl)-N-[[2-(3,4,5-trimethoxypheny)pyridin-4-yl]methyl]amino]-1-[[2-(3,4,5-trimethoxyphenyl)pyridin-4-yl]methyl]piperidine Trihydrochloride]	40
COc1cccc(N(Cc2ccnc(-c3cc(OC)c(OC)c(OC)c3)c2)C2CCN(Cc3cncc(-c4cc(OC)c(OC)c(OC)c4)c3)CC2)c1 [Example 89, 4-[N-(3-Methoxyphenyl)-N-[[2-(3,4,5-trimethoxyphenyl)pyridin-4-yl]methyl]amino]-1-[[3-(3,4,5-trimethoxyphenyl)pyridin-5-yl]methyl]piperidine Trihydrochloride]	90
COc1ccc(N(Cc2cncc(-c3cc(OC)c(OC)c(OC)c3)c2)C2CCN(Cc3ccnc(-c4cc(OC)c(OC)c(OC)c4)c3)CC2)cc1 [Example 13, 4-[N-(4-Methoxyphenyl)-N-[[5-(3,4,5-trimethoxyphenyl)pyridin-3-yl]methyl]amino]-1-[[2-(3,4,5-trimethoxyphenyl)pyridin-4-yl]methyl]piperidine Trihydrochloride]	30
COc1cc(-c2cc(CN3CCC(N(Cc4ccccc4)Cc4ccnc(-c5cc(OC)c(OC)c(OC)c5)c4)CC3)ccn2)cc(OC)c1OC [Example 16, 4-[N-Benzyl-N-[[2-(3,4,5-trimethoxyphenyl)pyridin-4-yl]methyl]amino]-1-[[2-(3,4,5-trimethoxyphenyl)pyridin-4-yl]methyl]piperidine Tetrahydrochloride]	300
COc1cc(-c2cc(CN3CCC(N(Cc4ccnc(-c5cc(OC)c(OC)c(OC)c5)c4)c4ccccc4)CC3)ccn2)cc(OC)c1OC [Example 42, 4-[N-Phenyl-N-[[2-(3,4,5-trimethoxyphenyl)pyridin-4-yl]methyl]amino]-1-[[2-(3,4,5-trimethoxyphenyl)pyridin-4-yl]methyl]piperidine Trihydrochloride]	70
COc1cc(-c2cc(CN3CCC(N(Cc4ccnc(-c5cc(OC)c(OC)c(OC)c5)c4)c4ccc(F)cc4)CC3)ccn2)cc(OC)c1OC [Example 157, 4-[N-(4-Fluorophenyl)-N-[[2-(3,4,5-trimethoxyphenyl)pyridin-4-yl]methyl]amino]-1-[[2-(3,4,5-trimethoxyphenyl)pyridin-4-yl]methyl]piperidine Trihydrochloride]	90
COc1cc(C(=O)OCCCN2CCCN(CCCOC(=O)c3cc(OC)c(OC)c(OC)c3)CC2)cc(OC)c1OC [Dilazep, dilazep, reference compound]	> 10000
COc1cc(-c2cncc(CN(Cc3ccccc3)C3CCN(Cc4ccnc(-c5cc(OC)c(OC)c(OC)c5)c4)CC3)c2)cc(OC)c1OC [Example 19, 4-[N-Benzyl-N-[[5-(3,4,5-trimethoxypheny)pyridin-3-yl]methyl]amino]-1-[[2-(3,4,5-trimethoxyphenyl)pyridin-4-yl]methyl]piperidine Tetrahydrochloride]	300
COc1cc(-c2cc(CN3CCC(N(C)Cc4ccnc(-c5cc(OC)c(OC)c(OC)c5)c4)CC3)ccn2)cc(OC)c1OC [Example 36, 4-[N-Methyl-N-[[2-(3,4,5-trimethoxyphenyl)pyridin-4-yl]methyl]amino]-1-[[2-(3,4,5-trimethoxyphenyl)pyridin-4-yl]methyl]piperidine Tetrahydrochloride]	200
COc1cc(-c2cc(CN3CCC(N(Cc4ccnc(-c5cc(OC)c(OC)c(OC)c5)c4)c4ccc(SC)cc4)CC3)ccn2)cc(OC)c1OC [Example 111, 1-[[2-(3,4,5-Trimethoxyphenyl)pyridin-4-yl]methyl]-4-[N-[[2-(3,4,5-trimethoxyphenyl)pyridin-4-yl]methyl]-N-(4-methylthiophenyl)amino]piperidine Trihydrochloride]	80
COc1cc(OC)cc(N(Cc2ccnc(-c3cc(OC)c(OC)c(OC)c3)c2)C2CCN(Cc3ccnc(-c4cc(OC)c(OC)c(OC)c4)c3)CC2)c1 [Example 23, 4-[N-(3,5-Dimethoxyphenyl)-N-[[2-(3,4,5-trimethoxyphenyl)pyridin-4-yl]methyl]amino]-1-[[2-(3,4,5-trimethoxyphenyl)pyridin-4-yl]methyl]piperidine Trihydrochloride]	30
COc1cc(-c2cc(CN3CCC(N(Cc4ccnc(-c5cc(OC)c(OC)c(OC)c5)c4)c4ccc5c(c4)OCO5)CC3)ccn2)cc(OC)c1OC [Example 29, 4-[N-(3,4-Methylenedioxyphenyl)-N-[[2-(3,4,5-trimethoxyphenyl)pyridin-4-yl]methyl]amino]-1-[[2-(3,4,5-trimethoxyphenyl)pyridin-4-yl]methyl]piperidine Trihydrochloride]	30
COc1cccc(N(Cc2ccnc(-c3cc(OC)c(OC)c(OC)c3)c2)C2CCN(Cc3ccnc(-c4cc(OC)c(OC)c(OC)c4)c3)CC2)c1 [Example 88, 4-[N-(3-Methoxyphenyl)-N-[[2-(3,4,5-trimethoxyphenyl)pyridin-4-yl]methyl]amino]-1-[[2-(3,4,5-trimethoxyphenyl)pyridin-4-yl]methyl]piperidine Trihydrochloride]	70
COc1ccc(N(Cc2ccnc(-c3cc(OC)c(OC)c(OC)c3)c2)C2CCN(Cc3cncc(-c4cc(OC)c(OC)c(OC)c4)c3)CC2)cc1 [Example 67, 4-[N-(4-Methoxyphenyl)-N-[[2-(3,4,5-trimethoxyphenyl)pyridin-4-yl]methyl]amino]-1-[[3-(3,4,5-trimethoxyphenyl)pyridin-5-yl]methyl]piperidine Trihydrochloride]	90

Same assay, conditions: examined similar to the Test Example 1 procedure; even at a concentration as high as 10 μM

Structure (SMILES)	inhibitory effect on cell adhesion (result in words)
c1cc(CNC2CCN(Cc3ccncc3)CC2)ccn1 [Preparation Example 91, 1-(4-Pycolyl)-4-(4-pycolylamino)piperidine Tetrahydrochloride, reference compound]	inactive
